Assay results reported in patent EP0361510B1, “Antitumor substance, process for preparing the same, and anticancer agent containing the same” (MEIJI SEIKA KAISHA LTD., priority 1988, dated 1990).
Values after ≈ are worked out from the molar mass of the structure shown. Read-outs that look alike come from different tables or passages of the source.

Assays:
[1] = test system: Mouse leukemia P-388 cells; assay: Antitumor activity in mice transplanted intraperitoneally with P-388 cells; type: in vivo, BDF₁ mice; settings: intraperitoneal, 24 hours after transplantation, hydrochloride
Experimental: Antitumor activity of hydrochlorides of the compounds of the present invention was determined in the following manner.
Mouse leukemia P-388 cells maintained in the abdominal cavity of BDF₁ mouse were taken out and were suspended in physiological saline to give a cell concnetration of 1 × 10⁶ cells/0.2 mℓ. The cell suspension (0.2 mℓ) was transplanted to the abdominal cavity of 5-week-old male BDF₁ mice. The compounds of the present invention as shown in Table 3 was dissolved in 0.2 mℓ of physiological saline and was intraperitoneally administered to the mouse 24 hours after the transplantation of P-388 cells. No compound was administered to the mice of the control group. The T/C% value was calculated in accordance with the following formula. [formula]

[2] = test system: Mouse leukemia P-388 cells; assay: Cytotoxicity on P-388 cells (MTT assay); type: cell-based; settings: for IC₅₀: 72 hours incubation; for IC50: Mus musculus, P388, 72 hours incubation, read-out: IC₅₀
Experimental: Cytotoxicity of the compounds according to the present invention was determined by MTT assay in the following manner.
Mouse leukemia P-388 cells were suspended in RPMI medium supplemented with 10% fetal calf serum and this suspension was used to inoculate the 96-well microplate to give a cell concentration of 2 × 10³ cells/well. The compound shown in Table 2 was dissloved in RPMI medium and add to each well for the test group, while no compound was added to wells of the control group. Incubation was carried out at 37°C for 72 hours at 5% CO₂. Then, MTT (3-(4,5-dimethylthiazol-2-yl)-2,5-diphenyl tetrazolium bromide) was added to each well to cause formation of formazan. The resulting formazan was dissolved by adding sodium dodecyl sulfate. Absorbance at 577-630 nm of each well was measured by the ELISA analyzer and 50% ihibitory concentration (IC₅₀) of each compound was calculated from the absorbance ratio of the test group to the control group.

[3] = Acute toxicity (LD50) in mice; settings: mouse, in vivo, hydrochloride, read-out: LD₅₀
Experimental: The hydrochlorides of the compounds of the present invention as shown in Table 4 were intraperitoneally or intravenously administered to mice and acute toxicity (LD₅₀) of each compound was measured.

[4] = mouse, i.v.; cited from earlier work

Molecule: 3′,11-O-diisobutyryl SF2587 [Compound 8]
- Anti-P388 Activity (T/C%) ([1]; Dose 2.5 mg/kg): 113%
- Anti-P388 Activity (T/C%) ([1]; Dose 5 mg/kg): 144%
- Anti-P388 Activity (T/C%) ([1]; Dose 10 mg/kg): 175%
- Anti-P388 Activity (T/C%) ([1]; Dose 20 mg/kg): >488%
- Anti-P388 Activity (T/C%) ([1]; Dose 40 mg/kg): 69%
- IC₅₀ [2]: 23.1 ng/mL

Molecule: 3′,11-O-divaleryl SF2587 [Compound 9]
- Anti-P388 Activity (T/C%) ([1]; Dose 2.5 mg/kg): 96%
- Anti-P388 Activity (T/C%) ([1]; Dose 5 mg/kg): 117%
- Anti-P388 Activity (T/C%) ([1]; Dose 10 mg/kg): 147%
- Anti-P388 Activity (T/C%) ([1]; Dose 20 mg/kg): 189%
- Anti-P388 Activity (T/C%) ([1]; Dose 40 mg/kg): 227%
- IC₅₀ [2]: 34.3 ng/mL

Molecule: 3′-O-isobutyryl SF2587 [Compound 7]
- IC₅₀ [2]: 55.2 ng/mL

Molecule: 11-O-Butyryl SF2587 [Compound 10]
- IC₅₀ [2]: 16.0 ng/mL

Molecule: 3′-O-propionyl SF2587 [Compound 3]
- IC₅₀ [2]: 19.9 ng/mL

Molecule: 3′-O-acetyl SF2587 Substance [Compound 1]
- Anti-P388 Activity (T/C%) ([1]; Dose 0.25 mg/kg): 124%
- Anti-P388 Activity (T/C%) ([1]; Dose 0.5 mg/kg): 134%
- Anti-P388 Activity (T/C%) ([1]; Dose 1.0 mg/kg): 144%
- IC₅₀ [2]: 19.4 ng/mL

Molecule: CCCC(=O)Oc1c(C2CC(C)(N(C)C)C(OC(=O)CCC)C(C)O2)ccc2c1C(=O)c1c(cc(C)c3c(=O)cc(C4(C)OC4C4OC4C)oc13)C2=O (centres unmarked) [Compound 6, 3′-11-O-dibutyryl SF2587]
- Anti-P388 Activity (T/C%) ([1]; Dose 1.25 mg/kg): 96%
- Anti-P388 Activity (T/C%) ([1]; Dose 2.5 mg/kg): 113%
- Anti-P388 Activity (T/C%) ([1]; Dose 5 mg/kg): 144%
- Anti-P388 Activity (T/C%) ([1]; Dose 10 mg/kg): 186%
- Anti-P388 Activity (T/C%) ([1]; Dose 20 mg/kg): >485%
- IC50 [2]: 0.0231 µg/mL (≈ 0.0317 µM)
- LD50 ([3]; ip, injection route i.p.): 120 mg/kg

Molecule: CCC(=O)Oc1c(C2CC(C)(N(C)C)C(OC(=O)CC)C(C)O2)ccc2c1C(=O)c1c(cc(C)c3c(=O)cc(C4(C)OC4C4OC4C)oc13)C2=O (centres unmarked) [Compound 4, 3′,11-O-dipropionyl SF2587]
- Anti-P388 Activity (T/C%) ([1]; Dose 1.56 mg/kg): 130%
- Anti-P388 Activity (T/C%) ([1]; Dose 3.13 mg/kg): 133%
- Anti-P388 Activity (T/C%) ([1]; Dose 6.25 mg/kg): 217%
- Anti-P388 Activity (T/C%) ([1]; Dose 12.5 mg/kg): >449%
- Anti-P388 Activity (T/C%) ([1]; Dose 25 mg/kg): 71%
- IC50 [2]: 0.0181 µg/mL (≈ 0.0258 µM)
- LD50 ([3]; ip, injection route i.p.): 40 mg/kg

Molecule: Cc1cc2c(c3oc(C4(C)OC4C4OC4C)cc(=O)c13)C(=O)c1c(ccc(C3CC(C)(N(C)C)C(O)C(C)O3)c1O)C2=O (centres unmarked) [SF2587]
- LD₅₀ [4]: about 5 mg/kg

Molecule: CC(=O)Oc1c(C2CC(C)(N(C)C)C(OC(C)=O)C(C)O2)ccc2c1C(=O)c1c(cc(C)c3c(=O)cc(C4(C)OC4C4OC4C)oc13)C2=O (centres unmarked) [Compound 2, 3′, 11-O-acetyl-SF2587]
- Anti-P388 Activity (T/C%) ([1]; Dose 3.5 mg/kg): 163%
- Anti-P388 Activity (T/C%) ([1]; Dose 7 mg/kg): >200%
- Anti-P388 Activity (T/C%) ([1]; Dose 14 mg/kg): 70%
- IC50 [2]: 0.0231 µg/mL (≈ 0.0343 µM)
- LD50 ([3]; ip, injection route i.p.): 16 mg/kg
- LD50 ([3]; iv, injection route i.v.): 23.5 mg/kg

Molecule: 3′-O-Butyryl SF2587 [Compound 5]
- Anti-P388 Activity (T/C%) ([1]; Dose 1.25 mg/kg): 158%
- Anti-P388 Activity (T/C%) ([1]; Dose 2.5 mg/kg): 186%
- Anti-P388 Activity (T/C%) ([1]; Dose 5 mg/kg): 72%
- IC₅₀ [2]: 17.8 ng/mL
